Test results reported in US8168651B2, “Protein kinase modulators” (Cylene Pharmaceuticals, Inc., priority 2008, dated 2012).
Where two headings read alike, the source gives them in different places.

What was measured:
recombinant human PIM1 = recombinant human PIM1 (Homo sapiens (Human), UniProt P11309); assay: PIM-1 kinase activity in cell-free in vitro assay; assay type: biochemical; settings: cell-free assay; for inhibition at 0.5 µM / PIM-1: % inh 500 nM: 500 nM compound; for inhibition at 0.5 µM: read-out: PIM-1: % inh 500 nM
Chain of recombinant human PIM1 (P11309 whole entry): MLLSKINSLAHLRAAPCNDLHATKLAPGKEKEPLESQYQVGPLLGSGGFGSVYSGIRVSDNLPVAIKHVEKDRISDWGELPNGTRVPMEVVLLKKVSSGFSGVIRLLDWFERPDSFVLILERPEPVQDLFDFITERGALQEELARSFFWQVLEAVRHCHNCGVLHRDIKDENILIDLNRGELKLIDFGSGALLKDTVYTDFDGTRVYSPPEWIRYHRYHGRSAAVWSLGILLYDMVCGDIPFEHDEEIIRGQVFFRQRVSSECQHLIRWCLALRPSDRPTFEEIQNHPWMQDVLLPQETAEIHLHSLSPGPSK

Jurkat = assay: Cell proliferation modulatory activity, Jurkat; assay type: cell-based
[1] = system: HCT-116 human colorectal carcinoma cells; assay: Cell-proliferation assay using Alamar Blue dye; assay type: cell-based; settings: Homo sapiens;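 note: cells exposed to compound for about 4 days, then Alamar Blue added and dye fluorescence read after about 4 h, compared with medium-only control wells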
[2] = HCT-116, read-out: HCT-116 (uM), cell proliferation modulatory activity, HCT-116, second HCT-116 column (c8)
[3] = HCT-116, HCT-116, second HCT-116 column (c8), read-out: HCT-116 (uM), cell proliferation modulatory activity

SMILES	inhibition at 0.5 µM (recombinant human PIM1) [%]	IC50 (Jurkat; Homo sapiens) [µM]	IC50 [1, 2] [µM]	IC50 (recombinant human PIM1) [µM]	IC50 [1, 3] [µM]	PIM-1: % inh 500 nM (recombinant human PIM1) [%]	IC50 (Jurkat) [µM]
C#Cc1cccc(Nc2nc3cc(C(=O)O)ccc3c3cnc(NC)nc23)c1	68.2	1.29	4.69	0.661	–	–	–
CN(C)c1ncc2c(n1)c(Nc1cccc(Cl)c1)nc1cc(C(=O)O)ccc12	–	5.83	–	–	> 10	–	–
O=C(O)c1ccc2c(c1)nc(Nc1ccc(F)c(Cl)c1)c1nc(NCc3ccccn3)ncc12	59.1	2.59	–	–	–	–	–
COC(CNc1ncc2c(n1)c(Nc1ccc(F)c(Cl)c1)nc1cc(C(=O)O)ccc12)OC	57.6	1.12	–	–	–	–	–
O=C(NC1CC1)c1ccc2c(c1)nc(Nc1cccc(C(F)(F)F)c1)c1nc(NC3CC3)ncc12	16.7	3.92	–	–	–	–	–
CNC(=O)c1ccc2c(c1)nc(Nc1cccc(C(F)(F)F)c1)c1nc(NC3CC3)ncc12	16.2	3.65	–	–	–	–	–
O=C(O)c1ccc2c(c1)nc(Nc1ccccc1)c1nc(Nc3ccccc3)ncc12	13	8.98	–	–	–	–	–
CN(C)c1ncc2c(n1)c(NC1CC1)nc1cc(C(=O)O)ccc12	-38.5	> 50	–	–	> 10	–	–
C#Cc1cccc(Nc2nc3cc(C(N)=O)ccc3c3cncnc23)c1	-38.1	31.5	–	–	> 10	–	–
Nc1ncc2c(n1)c(Nc1cccc(C(F)(F)F)c1)nc1cc(C(=O)O)ccc12	74.3	2.66	> 10	0.443	–	–	–
O=C(O)c1ccc2c(c1)nc(NC1CC1)c1nc(NCc3ccncc3)ncc12	8.18	35.6	> 10	–	–	–	–
O=C(O)c1ccc2c(c1)nc(NC1CC1)c1nc(NCCO)ncc12	22.4	> 50	–	–	–	–	–
O=C(O)c1ccc2c(c1)nc(NC1CC1)c1nc(NCc3ccccn3)ncc12	11.2	23.3	> 10	–	–	–	–
O=C(O)c1ccc2c(c1)nc(NC1CC1)c1nc(NCCN3CCOCC3)ncc12	41.2	21	–	–	> 10	–	–
O=C(O)c1ccc2c(c1)nc(NC1CC1)c1nc(NNCCO)ncc12	-37	> 50	–	–	> 10	–	–
C#Cc1cccc(Nc2nc3cc(C(=O)NC)ccc3c3cncnc23)c1	-28.3	1.95	–	–	7.17	–	–

SMILES	inhibition at 0.5 µM (recombinant human PIM1) [%]	IC50 (Jurkat; Homo sapiens) [µM]	IC50 [1, 2] [µM]	IC50 (recombinant human PIM1) [µM]	IC50 [1, 3] [µM]	PIM-1: % inh 500 nM (recombinant human PIM1) [%]	IC50 (Jurkat) [µM]
C#Cc1cccc(Nc2nc3cc(C(=O)NC4CC4)ccc3c3cncnc23)c1	-13.1	1.54	–	–	3.49	–	–
O=C(O)c1ccc2c(c1)nc(NC1CC1)c1nc(Nc3cc(F)ccc3F)ncc12	50.4	15.7	–	> 1.1	> 10	–	–
O=C(O)c1ccc2c(c1)nc(NC1CC1)c1nc(Nc3cc(F)cc(F)c3)ncc12	46.3	35.4	–	–	> 10	–	–
Nc1nc2cc(C(=O)O)ccc2c2cnc(NC3CC3)nc12	0.938	55.2	–	–	> 10	–	–
C#Cc1cccc(Nc2nc3cc(C(=O)N4CCCC4)ccc3c3cncnc23)c1	-7.6	13.3	–	–	> 10	–	–
C#Cc1cccc(Nc2nc3cc(C(=O)N4CCOCC4)ccc3c3cncnc23)c1	-17.6	> 30	–	–	> 10	–	–
C#Cc1cccc(Nc2nc3cc(C(=O)N(C)c4ccccc4)ccc3c3cncnc23)c1	-11.2	18.8	–	–	> 10	–	–
C#Cc1cccc(Nc2nc3cc(C(=O)NCc4ccc(C#N)cc4)ccc3c3cncnc23)c1	-14.6	9.09	–	–	> 10	–	–
C#Cc1cccc(Nc2nc3cc(C(=O)N(C)CCN(C)C)ccc3c3cncnc23)c1	-15.5	4.37	–	–	4.39	–	–
C#Cc1cccc(Nc2nc3cc(C(=O)N4CCCN(C)CC4)ccc3c3cncnc23)c1	-11.2	3.22	–	–	> 10	–	–
COC(=O)c1ccc2c(c1)nc(Nc1ccccc1C)c1nc(S(C)(=O)=O)ncc12	25.3	> 30	–	–	> 10	–	–
Cc1c(-c2cc(Nc3nc4cc(C(=O)O)ccc4c4cnccc34)n(C)n2)sc2ccc(Cl)cc12	4.53	19.6	–	–	> 10	–	–
O=C(O)c1ccc2c(c1)nc(Nc1ccc(OC(F)(F)F)cc1)c1ccncc12	68.3	4.7	–	0.668	> 10	–	–
O=C(O)c1ccc2c(c1)nc(Nc1cccc(OC(F)(F)F)c1)c1ccncc12	87.3	7.44	–	0.711	> 10	–	–
CC1CCCCN1CCCNc1ncc2c(n1)c(Nc1ccc(F)c(Cl)c1)nc1cc(C(=O)O)ccc12 (stereo not shown) [drawing 1629]	38.9	2.86	–	–	–	–	–
COc1cccc(Nc2ncc3c(n2)c(NC2CC2)nc2cc(C(=O)O)ccc23)c1 [drawing 1720]	–	–	–	0.97	–	60.859	3.15

Second part, the compound after the results:

inhibition at 0.5 µM (recombinant human PIM1) [%]	IC50 (Jurkat; Homo sapiens) [µM]	IC50 [1, 2] [µM]	IC50 (recombinant human PIM1) [µM]	IC50 [1, 3] [µM]	PIM-1: % inh 500 nM (recombinant human PIM1) [%]	IC50 (Jurkat) [µM]	SMILES
33.7	2.18	> 10	–	–	–	–	O=C(O)c1ccc2c(c1)nc(Nc1ccccc1)c1nc(NCCCN3CCOCC3)ncc12
-38.6	1.27	7.3	–	–	–	–	C#Cc1cccc(Nc2nc3cc(C(=O)O)ccc3c3cnc(NC4CC4)nc23)c1
51.5	1.09	> 10	–	–	–	–	CNc1ncc2c(n1)c(Nc1cccc(Cl)c1)nc1cc(C(=O)O)ccc12
19.6	1.5	–	–	–	–	–	O=C(O)c1ccc2c(c1)nc(Nc1ccc(F)c(Cl)c1)c1nc(NCc3cccnc3)ncc12
10.5	7.24	–	–	–	–	–	CCOC(=O)CCNC(=O)c1ccc2c(c1)nc(Nc1cccc(C(F)(F)F)c1)c1nc(NC3CC3)ncc12
52.4	9.68	> 10	0.535	–	–	–	CNc1ncc2c(n1)c(NC1CC1)nc1cc(C(=O)O)ccc12
-39.8	1.22	–	–	> 10	–	–	CC(=O)Nc1ccc2c(c1)nc(Nc1cccc(C(F)(F)F)c1)c1nc(NC3CC3)ncc12
-11.1	0.826	> 10	–	–	–	–	O=C(O)c1ccc2c(c1)nc(NC1CC1)c1nc(NCCc3ccccc3)ncc12
-22.8	27.5	–	–	> 10	–	–	O=C(O)c1ccc2c(c1)nc(NC1CC1)c1nc(NC(CO)c3ccccc3)ncc12 (stereo not shown)
18.9	> 50	–	–	> 10	–	–	O=C(O)c1ccc2c(c1)nc(NC1CC1)c1nc(NC3CCNCC3)ncc12
-13.2	1.14	–	–	4.77	–	–	COC(=O)c1ccc2c(c1)nc(N)c1nc(SC)ncc12
49.3	5.02	–	1.07	> 10	–	–	O=C(O)c1ccc2c(c1)nc(NC1CC1)c1nc(Nc3ccc(F)cc3)ncc12
8.76	26.6	–	–	> 10	–	–	O=C(O)c1ccc2c(c1)nc(NC1CC1)c1nc(Nc3ccc(F)c(Cl)c3)ncc12
38.7	9.17	–	–	2.31	–	–	COc1ccc(Nc2ncc3c(n2)c(NC2CC2)nc2cc(C(=O)O)ccc23)cc1Cl
22.9	23.3	–	–	> 10	–	–	O=C(O)c1ccc2c(c1)nc(NC1CC1)c1nc(Nc3cccc4ccccc34)ncc12
52.8	18.6	–	0.994	> 10	–	–	Cc1ccccc1Nc1ncc2c(n1)c(NC1CC1)nc1cc(C(=O)O)ccc12
32.8	5.17	–	–	3.77	–	–	CCOc1cccc(Nc2ncc3c(n2)c(NC2CC2)nc2cc(C(=O)O)ccc23)c1
45.9	9.26	–	–	> 10	–	–	CCOc1ccc(Nc2ncc3c(n2)c(NC2CC2)nc2cc(C(=O)O)ccc23)cc1
26.3	18.9	–	–	> 10	–	–	CC(C)Oc1ccc(Nc2ncc3c(n2)c(NC2CC2)nc2cc(C(=O)O)ccc23)cc1
32	> 62.5	–	–	> 10	–	–	CC(=O)Nc1cccc(Nc2ncc3c(n2)c(NC2CC2)nc2cc(C(=O)O)ccc23)c1
57.2	22.9	–	> 1.1	> 10	–	–	O=C(O)c1ccc2c(c1)nc(Nc1ccc(Oc3ccccc3)cc1)c1ccncc12
48.4	> 30	–	1.09	> 10	–	–	CSc1ncc2c(n1)c(N(C)c1ccccc1)nc1cc(C(=O)O)ccc12
48.3	1.26	–	> 1.1	> 10	–	–	Cc1ccc(Nc2nc3cc(C(=O)O)ccc3c3cnccc23)nc1
1.04	> 30	–	–	> 10	–	–	O=C(O)c1ccc2c(c1)nc(N1CCC(c3ccccc3)C1)c1ccncc12 (stereo not shown)
44.1	> 30	–	–	> 10	–	–	O=C(O)c1ccc2c(c1)nc(Nc1cccc(Oc3ccccc3)c1)c1ccncc12
75.8	10.7	–	0.744	> 10	–	–	COc1cc(Nc2nc3cc(C(=O)O)ccc3c3cnccc23)ccc1C
9.95	> 30	–	–	> 10	–	–	Cc1ccc(C(N)=O)cc1Nc1nc2cc(C(=O)O)ccc2c2cnccc12
75.8	10.4	–	0.698	> 10	–	–	COc1ccccc1Nc1nc2cc(C(=O)O)ccc2c2cnccc12
–	> 50	–	–	> 10	–	–	O=C(O)c1ccc2c(c1)nc(Nc1cncc(C3CC3)c1)c1ccncc12 [drawing 1619]
–	–	–	–	–	5.494	54.6	COc1cccc(Nc2ncc3c(n2)c(NC2CC2)nc2cc(C(=O)O)ccc23)c1 [drawing 1717]
